The assay has as its target T1, IRAK4 (Homo sapiens, UniProt Q9NWZ3).
T1 construct: Degradation of IRAK4 in OCI-LY10 was quantitatively measured using Meso Scale Discovery technology; endogenous in cells; host or cells: OCI-LY10
T1 sequence (Q9NWZ3 1-460): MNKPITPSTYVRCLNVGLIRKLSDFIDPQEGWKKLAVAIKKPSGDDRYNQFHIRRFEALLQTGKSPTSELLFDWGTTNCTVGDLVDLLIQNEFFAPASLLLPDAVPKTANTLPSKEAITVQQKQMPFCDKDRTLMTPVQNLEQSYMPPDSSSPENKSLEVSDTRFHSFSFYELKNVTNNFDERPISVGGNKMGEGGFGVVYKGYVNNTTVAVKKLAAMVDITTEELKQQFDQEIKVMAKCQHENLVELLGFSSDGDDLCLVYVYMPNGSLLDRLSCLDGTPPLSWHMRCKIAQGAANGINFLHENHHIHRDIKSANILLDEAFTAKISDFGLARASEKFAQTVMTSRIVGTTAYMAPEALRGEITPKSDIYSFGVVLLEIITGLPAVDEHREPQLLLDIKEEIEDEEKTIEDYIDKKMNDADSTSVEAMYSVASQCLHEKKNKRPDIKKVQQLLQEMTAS
Put plainly: IRAK4 MSD Degradation in OCI-LY10. Format: cell-based. The note with it: OCI-LY10 cells, MSD. The procedure, abridged:
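OCI-LY10 cells exposed to 8-point 1:3 compound series (top 1 to 10 μM) for 4 to 24 h at 37 °C, 5% CO2. Lysate IRAK4 quantified by MSD sandwich immunoassay. DC50 from three-parameter logistic fit, binned A (<0.01 μM) to D (>0.2 μM or not tested).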

Where [1] appears, read: 4 hrs incubation, read-out: IRAK4 degradation in OCI-LY10 at 4 hrs: DC50.
Setting [2] is: 24 hrs incubation, read-out: IRAK4 degradation in OCI-LY10 at 24 hrs: DC50.

Like-named read-outs stand apart in the source and are kept apart here.

For `Cc1ccc(-c2nn([C@H]3CC[C@H](CN4CCN(CC#Cc5cccc6c5n(C)c(=O)n6C5CCC(=O)NC5=O)CC4)CC3)cc2NC(=O)c2cnn3cccnc23)cc1` (stereo partly drawn) [I-118], the DC50 under setting [1] is over 200 nM and the DC50 under setting [2] is 10 to 100 nM.
Regarding `C[C@@H]1CN(CCCc2cccc3c2n(C)c(=O)n3C2CCC(=O)NC2=O)CCN1C[C@H]1CC[C@H](n2cc(NC(=O)c3cnn4ccc(N5C[C@H]6C[C@@H]5CO6)nc34)c(C(F)F)n2)CC1` (stereo partly drawn) [I-119], the DC50 by setting is: under setting [1], over 200 nM; under setting [2], over 200 nM.
For `C[C@H]1CN(CCCc2cccc3c2n(C)c(=O)n3C2CCC(=O)NC2=O)CCN1C[C@H]1CC[C@H](n2cc(NC(=O)c3cnn4ccc(N5C[C@H]6C[C@@H]5CO6)nc34)c(C(F)F)n2)CC1` (stereo partly drawn) [I-120], the DC50 is over 200 nM under setting [1] and over 200 nM under setting [2].
With `COc1nn([C@H]2CC[C@H](CN3CCN(CC#Cc4cccc5c4n(C)c(=O)n5C4CCC(=O)NC4=O)CC3)CC2)cc1NC(=O)c1cnn2ccc(N3C[C@H]4C[C@@H]3CO4)nc12` (stereo partly drawn) [I-121], the DC50 reads like this: under setting [1], 100 to 200 nM; under setting [2], over 200 nM.
Consider `Cc1ccc(-c2nn([C@H]3CC[C@H](CN4CCN(CC#Cc5cccc6c5n(C)c(=O)n6C5CCC(=O)NC5=O)CC4)CC3)cc2NC(=O)c2cnn3cccnc23)nc1` (stereo partly drawn) [I-122], for which the DC50 runs as follows: under setting [1], over 200 nM; under setting [2], 10 to 100 nM.
As to `O=C1CCN(c2cccc(C#CCN3CCN(C[C@H]4CC[C@H](n5cc(NC(=O)c6cnn7ccc(N8C[C@H]9C[C@@H]8CO9)nc67)c(C(F)F)n5)CC4)CC3)c2)C(=O)N1` [I-123], the DC50 under setting [1] is over 200 nM and the DC50 under setting [2] is over 200 nM.
Consider `O=C1CCN(c2ccc(C#CCN3CCN(C[C@H]4CC[C@@H](n5cc(NC(=O)c6cnn7ccc(N8C[C@@H]9C[C@H]8CO9)nc67)c(C(F)F)n5)CC4)CC3)cc2)C(=O)N1` [I-124], for which the half-maximal degradation concentration (DC50) is over 200 nM under setting [1] and over 200 nM under setting [2].
Regarding `O=C1CCC(c2cccc(C#CCN3CCN(C[C@H]4CC[C@@H](n5cc(NC(=O)c6cnn7ccc(N8C[C@@H]9C[C@H]8CO9)nc67)c(C(F)F)n5)CC4)CC3)c2)C(=O)N1` (stereo partly drawn) [I-125], the DC50 is over 200 nM under setting [1] and over 200 nM under setting [2].
As for `O=C1CCC(c2ccc(C#CCN3CCN(C[C@H]4CC[C@@H](n5cc(NC(=O)c6cnn7ccc(N8C[C@@H]9C[C@H]8CO9)nc67)c(C(F)F)n5)CC4)CC3)cc2)C(=O)N1` (stereo partly drawn) [I-126], the DC50 is over 200 nM under setting [1] and over 200 nM under setting [2].
Consider `Cn1c(=O)n(C2CCC(=O)NC2=O)c2cccc(C#CCO[C@@H]3CCCN(C[C@H]4CC[C@H](n5cc(NC(=O)c6cnn7ccc(N8C[C@H]9C[C@@H]8CO9)nc67)c(C(F)F)n5)CC4)C3)c21` (stereo partly drawn) [I-127], for which the DC50 runs as follows: under setting [1], 100 to 200 nM; under setting [2], over 200 nM.
For the compound `Cn1c(=O)n(C2CCC(=O)NC2=O)c2cccc(C#CCO[C@H]3CCCN(C[C@H]4CC[C@H](n5cc(NC(=O)c6cnn7ccc(N8C[C@H]9C[C@@H]8CO9)nc67)c(C(F)F)n5)CC4)C3)c21` (stereo partly drawn) [I-128], the DC50 is, setting by setting: under setting [1], 10 to 100 nM; under setting [2], over 200 nM.
In the case of `CN1C(=O)C(C2CCC(=O)NC2=O)c2cccc(N3CCN(CC4CCC(n5cc6cc(NC(=O)c7cccc(C(F)(F)F)n7)c(S(C)(=N)=O)cc6n5)CC4)CC3)c21` (stereo not drawn) [I-129], the 50% degradation concentration (DC50) is under 10 nM under setting [1] and over 200 nM under setting [2].
For `CC(C)(O)c1cc2nn([C@H]3CC[C@H](CN4CCC5(CC4)CC(CCNc4cccc6c4C(=O)N(C4CCC(=O)NC4=O)C6=O)C5)CC3)cc2cc1NC(=O)c1cccc(C(F)(F)F)n1` (stereo partly drawn) [I-130] the same measures were over 200 nM and 10 to 100 nM.
For the compound `COc1cc2nn([C@H]3CC[C@H](CN4CC(c5cccc6c5n(C)c(=O)n6C5CCC(=O)NC5=O)C4)CC3)cc2cc1NC(=O)c1nc(C(C)(C)F)ccc1OC` (stereo partly drawn) [I-131], the DC50 by setting is: under setting [1], over 200 nM; under setting [2], over 200 nM.
Consider `COc1cc2nn([C@H]3CC[C@H](CN4CC(c5c(OC)ccc6c5n(C)c(=O)n6C5CCC(=O)NC5=O)C4)CC3)cc2cc1NC(=O)c1cccc(C(C)(C)F)n1` (stereo partly drawn) [I-132], for which the DC50 was over 200 nM under setting [1] and over 200 nM under setting [2].
For `COc1cc2nn([C@H]3CC[C@H](CN4CC(c5cccc6c5n(C)c(=O)n6C5CCC(=O)NC5=O)C4)CC3)cc2cc1NC(=O)c1cncc(C(C)(C)F)n1` (stereo partly drawn) [I-134], the DC50 reads like this: under setting [1], over 200 nM; under setting [2], over 200 nM.
In the case of `COc1cc2nn([C@H]3CC[C@H](CN4CC(c5cncc6c5n(C)c(=O)n6C5CCC(=O)NC5=O)C4)CC3)cc2cc1NC(=O)c1cccc(C(C)(C)F)n1` (stereo partly drawn) [I-135], the DC50 by setting is: under setting [1], over 200 nM; under setting [2], over 200 nM.
Regarding `COc1cc2nn([C@H]3CC[C@H](CN4CC(c5cccc6c5n(C)c(=O)n6C5CCC(=O)NC5=O)C4)CC3)cc2cc1NC(=O)c1nc(C(C)(C)F)ccc1OC` (stereo partly drawn) [I-136], under setting [1], the DC50 was over 200 nM.
With `COc1ccc(C(F)(F)F)nc1C(=O)Nc1cc2cn([C@H]3CC[C@@H](CN4CCC5(CC4)CC(CNc4cccc6c4C(=O)N(C4CCC(=O)NC4=O)C6=O)C5)CC3)nc2cc1C(C)(C)O` (stereo partly drawn) [I-137], the DC50 was over 200 nM under setting [1] and 10 to 100 nM under setting [2].
On to `COc1cc2nn([C@H]3CC[C@H](CN4CCC5(CC4)CC(Oc4cccc6c4C(=O)N(C4CCC(=O)NC4=O)C6=O)C5)CC3)cc2cc1NC(=O)c1cccc(C(F)(F)F)n1` (stereo partly drawn) [I-138], for which the DC50 is over 200 nM under setting [1] and under 10 nM under setting [2].
For `CC(C)(O)c1cc2nn([C@H]3CC[C@H](CNCCCCCCCNc4cccc5c4C(=O)N(C4CCC(=O)NC4=O)C5=O)CC3)cc2cc1NC(=O)c1cccc(C(F)(F)F)n1` (stereo partly drawn) [I-139], the DC50 is, setting by setting: under setting [1], over 200 nM; under setting [2], 10 to 100 nM.
On to `COc1cc2nn([C@H]3CC[C@H](CN4CCC5(CC4)CC(Nc4cccc6c4C(=O)N(C4CCC(=O)NC4=O)C6=O)C5)CC3)cc2cc1NC(=O)c1ccccn1` (stereo partly drawn) [I-140], for which the DC50 reads like this: under setting [1], over 200 nM; under setting [2], 10 to 100 nM.
`COc1cc2nn([C@H]3CC[C@H](CN4CCC5(CC4)CC(N(C)c4cccc6c4C(=O)N(C4CCC(=O)NC4=O)C6=O)C5)CC3)cc2cc1NC(=O)c1cccc(C(F)(F)F)n1` (stereo partly drawn) [I-141]: the DC50 runs as follows: under setting [1], over 200 nM; under setting [2], 10 to 100 nM.
Consider `CC(C)(O)c1cc2nn(C3CCC(CNCCCCCNc4cccc5c4C(=O)N(C4CCC(=O)NC4=O)C5=O)CC3)cc2cc1NC(=O)c1cccc(C(F)(F)F)n1` (stereo not drawn) [I-142], for which the DC50 is, setting by setting: under setting [1], over 200 nM; under setting [2], under 10 nM.
`CC(C)(O)c1cc2nn([C@H]3CC[C@H](CNCCCCCCNc4cccc5c4C(=O)N(C4CCC(=O)NC4=O)C5=O)CC3)cc2cc1NC(=O)c1cccc(C(F)(F)F)n1` (stereo partly drawn) [I-143]: the DC50 runs as follows: under setting [1], over 200 nM; under setting [2], under 10 nM.
With `CC(C)(O)c1cc2nn([C@H]3CC[C@H](CNCCNc4cccc5c4C(=O)N(C4CCC(=O)NC4=O)C5=O)CC3)cc2cc1NC(=O)c1cccc(C(F)(F)F)n1` (stereo partly drawn) [I-144], the DC50 is under 10 nM under setting [1] and under 10 nM under setting [2].
Regarding `CN(CCCCNc1cccc2c1C(=O)N(C1CCC(=O)NC1=O)C2=O)C[C@H]1CC[C@H](n2cc3cc(NC(=O)c4cccc(C(F)(F)F)n4)c(C(C)(C)O)cc3n2)CC1` (stereo partly drawn) [I-145], the DC50 is under 10 nM under setting [1] and under 10 nM under setting [2].
Regarding `CC(C)(O)c1cc2nn([C@H]3CC[C@H](CNCCCNc4cccc5c4C(=O)N(C4CCC(=O)NC4=O)C5=O)CC3)cc2cc1NC(=O)c1cccc(C(F)(F)F)n1` (stereo partly drawn) [I-146], the DC50 is over 200 nM under setting [1] and 10 to 100 nM under setting [2].
Take `COc1cc2nn([C@H]3CC[C@H](CN4CCC5(CC4)CCN(c4cccc6c4n(C)c(=O)n6C4CCC(=O)NC4=O)CC5)CC3)cc2cc1NC(=O)c1cncc(OC(F)(F)F)c1` (stereo partly drawn) [I-147]: the DC50 is 100 to 200 nM under setting [1] and over 200 nM under setting [2].
As to `COc1cc2nn([C@H]3CC[C@H](CN4CCC5(CC4)CCN(c4cccc6c4n(C)c(=O)n6C4CCC(=O)NC4=O)CC5)CC3)cc2cc1NC(=O)c1cncc(OC(F)F)c1` (stereo partly drawn) [I-148], the DC50 under setting [1] lay within 10 to 100 nM and the DC50 under setting [2] was over 200 nM.
Consider `COc1cc2nn([C@H]3CC[C@H](CN4CCC5(CC4)CCN(c4cccc6c4n(C)c(=O)n6C4CCC(=O)NC4=O)CC5)CC3)cc2cc1NC(=O)c1cncc(SC)c1` (stereo partly drawn) [I-149], for which the DC50 is, setting by setting: under setting [1], under 10 nM; under setting [2], over 200 nM.
Turning to `COc1cc2nn([C@H]3CC[C@H](CN4CCC5(CC4)CCN(c4cccc6c4n(C)c(=O)n6C4CCC(=O)NC4=O)CC5)CC3)cc2cc1NC(=O)c1cncc([S+](C)[O-])c1` (stereo partly drawn) [I-150], the DC50 is, setting by setting: under setting [1], 10 to 100 nM; under setting [2], over 200 nM.
`COc1cc2nn([C@H]3CC[C@H](CN4CCC5(CC4)CCN(c4cccc6c4n(C)c(=O)n6C4CCC(=O)NC4=O)CC5)CC3)cc2cc1NC(=O)c1cncc(S(C)(=O)=O)c1` (stereo partly drawn) [I-151]: the DC50 under setting [1] is over 200 nM and the DC50 under setting [2] was over 200 nM.
Take `COc1cc2nn([C@H]3CC[C@H](CN4CCC5(CC4)CCN(c4cccc6c4n(C)c(=O)n6C4CCC(=O)NC4=O)CC5)CC3)cc2cc1NC(=O)c1cncc(SC(F)(F)F)c1` (stereo partly drawn) [I-152]: the DC50 is, setting by setting: under setting [1], over 200 nM; under setting [2], over 200 nM.
With `COc1cc2nn([C@H]3CC[C@H](CN4CCC5(CC4)CCN(c4cccc6c4n(C)c(=O)n6C4CCC(=O)NC4=O)CC5)CC3)cc2cc1NC(=O)c1cncc([S+]([O-])C(F)(F)F)c1` (stereo partly drawn) [I-153], the DC50 is, setting by setting: under setting [1], over 200 nM; under setting [2], over 200 nM.

One may read the DC50 as the midpoint of the concentration-degradation curve.

(Values after patent US12091411B2, “IRAK degraders and uses thereof” (Kymera Therapeutics, Inc., priority 2022, dated 2024).)
